This is an account of results in patent US9594042B2, “Electrochemical determination of factor XA inhibitors” (Roche Diagnostics Operations Inc., priority 2006, dated 2017).

This experiment has as its target factor Xa (Homo sapiens, UniProt P00742). The experiment can be described thus: premature factor Xa-induced degradation of the thrombin substrate during common dwelling in liquid reagent. The conditions noted are these: common dwelling time of 2 h with factor Xa. Type of experiment: biochemical. The text has this:
The coagulation factor Xa is a serine protease which naturally recognizes the amino sequence -Ile-Glu-Gly-Arg- of prothrombin and by cleaving this sequence, activates the natural substrate prothrombin to form thrombin. In addition to this physiological substrate, factor Xa is also able to enzymatically cleave other peptides having this or other cleavage sequences. Thus, peptidic thrombin substrates and in particular the widely used Chromozym TH can also be cleaved by factor Xa. This low substrate specificity of factor Xa can result in problems in the methods according to the invention especially when such a thrombin substrate which can also be cleaved by factor Xa is used as a detection reagent and already comes into contact with factor Xa before adding the sample and can be converted thereby. As a result a portion of the thrombin substrate can already be converted such that this is no longer available for the thrombin-mediated detection reaction and thus the result of the measurement is affected. Such undesired side reactions can occur especially when factor Xa and the thrombin substrate are in contact over a long period such as would be for example the case if these two substances were to be introduced simultaneously into a liquid detection reagent. […]

Chain of factor Xa (P00742 235-488 limits assumed): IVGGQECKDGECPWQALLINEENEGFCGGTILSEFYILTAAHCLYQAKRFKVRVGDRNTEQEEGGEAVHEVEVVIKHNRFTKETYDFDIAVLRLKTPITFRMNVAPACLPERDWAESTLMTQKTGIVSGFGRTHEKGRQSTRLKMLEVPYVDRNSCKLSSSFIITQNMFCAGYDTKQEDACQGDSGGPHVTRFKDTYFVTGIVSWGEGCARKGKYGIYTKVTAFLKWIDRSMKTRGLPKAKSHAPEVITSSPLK
Chain of factor Xa (P00742 41-179 partner limits assumed): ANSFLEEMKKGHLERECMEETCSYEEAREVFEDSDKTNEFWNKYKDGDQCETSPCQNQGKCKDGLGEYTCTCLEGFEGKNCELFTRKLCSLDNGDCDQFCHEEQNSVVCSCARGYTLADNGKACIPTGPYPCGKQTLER

With “tosyl-glycy-prolyl-arginine-4-nitroanilide acetate [reduced Chromozym TH]”, the “portion of the reduced Chromozym TH cleaved due alone to the action of factor Xa” value was “about 25%”.
